According to patent US20230331674A1 (priority 2020, published 2023):

Assays:
[1] = Plasma protein binding, equilibrium dialysis; format: in vitro ADME; details: pH 7.4, human plasma, 37° C.
Procedure: The equilibrium dialysis technique was used to separate the fraction of the bound to human plasma protein. The assay was performed in a 96-well format in a dialysis block constructed from Teflon to minimize the unspecific binding (Banker M. J. et al. J. Pharm. Sci. 2003, 92, 967-974). Plasma from human was used as the default protein containing matrix. […] Acebutolol, quinidine and warfarin were tested in each assay as reference compounds, which yield protein binding that represent low, medium and high bindings to human plasma proteins, respectively. The dialysate compartment was loaded with the phosphate buffered saline (PBS, pH 7.4), and the sample side was loaded with equal volume of the spiked protein matrix. The dialysis plate was then sealed and incubated at 37° C. for 4 h. A control sample (n=2) was prepared from the spiked protein matrix in the same manner as the assay sample (without dialysis). The control sample served as the basis for the recovery determination. After the incubation, samples were taken from each compartment, diluted with phosphate buffer followed by addition of acetonitrile and centrifugation. The supernatants were then used for HPLC-MS/MS analysis using selected reaction monitoring. […]
The recovery determination serves as an indicator of reliability of the calculated protein binding value. […]

[2] = Metabolic stability in cryopreserved hepatocytes; format: in vitro ADME; details: both sexes, pH 7.3, human hepatocytes
Procedure: Cryopreserved hepatocytes (mixed gender and pool of 10 or more) were thawed, washed, and resuspended in Krebs-Heinslet buffer (pH 7.3). […] The reaction was stopped by adding acetonitrile into the incubation mixture. Samples were then mixed, transferred completely to another 96-well plate, and centrifuged. Supernatants were used for HPLC-MS/MS analysis. As reference substances, four compounds were tested in each assay. Propranolol is relatively stable, whereas flurazepam, naloxone and 7-hydroxy-4-trifluoromethylcoumarin (HFC) are readily metabolized in human hepatocytes. In the HPLC-MS/MS analysis peak areas corresponding to the test compounds were recorded. Metabolic stability, expressed as percentage of the parent compound remaining, was calculated by comparing the peak area of the compound at the time point relative to that at time 0. The half-life (t1/2) was estimated from the slope of the initial linear range of the logarithmic curve of the compound remaining (%) versus time, assuming first order kinetics. The apparent intrinsic clearance (Clint in μL/min/million cells) was calculated from the half-life according to the following formula:
Clint=0.693/(t1/2×million cells/μL) (5).

Compound `COCCN(CC1CCCN(Cc2ccccc2)C1)S(=O)(=O)c1ccc2ccccc2c1` (racemic) [(±)-N-((1-benzylpiperidin-3-yl)methyl)-N-(2-methoxyethyl)naphthalene-2-sulfonamide] has a fraction unbound at 4 h, 10 μM [1] of 0.04, a half-life at 1 μM ([2]; 0.7 million viable cells per mL, read-out: In vitro half-life in cryopreserved hepatocytes) of 54 min and a hepatocyte CLint at 1 μM ([2]; read-out: Hepatocyte clearance (Clint)) of 18.2 µL/min/1e6 cells.
